Data on ten compounds can be found in US11339189B2, “DNA primase and gyrase inhibitors” (B. G. NEGEV TECHNOLOGIES AND APPLICATIONS LTD., AT …, priority 2016, dated 2022).

The target of data set [1] is T1, T7 DNA primase (Escherichia phage T7, UniProt P03692).
T1 construct: T7 primase domain (residue: 1-271) was over-produced and purified using metal free buffers; made in house; host or cells: E. coli Bl21(DE3) containing pETg4P
Put plainly: [1H,15N]-TROSY HSQC titration of labeled primase with compounds. It is filed as binding, bacteriophage T7. Particulars: compared to free T7 primase. The protocol:
[^1H,^15N]-TROSY HSQC titration spectra of 15N,D T7 DNA primase with selected fragment molecules and compounds 1, 12, 13, 15, 17, ATP, and DNA were recorded at 25° C. on a Bruker DMX 800 MHz spectrometer equipped with TXI cryoprobes with Z gradient. Data were processed and analyzed using NMRPipe (Journal of Biomolecular NMR 6, 277-293 (1995)) and NMRView (Journal of Biomolecular Nmr 4, 603-614 (1994)).
Structural analysis of inhibitor-primase interactions: To characterize the binding of the compounds identified using FBVS, the [^15N, ^1H]-TROSY-HSQC spectra of ^15N- and D-labeled T7 primase in the presence of the selected lead compounds (FIGS. 7A-B) were measured. […] Relative to the initial scaffold alone, those shifts were more pronounced, which indicates stronger binding interactions. In addition, chemical shift perturbations upon the addition of DNA and ATP/CTP to the T7 primase domain confirmed that all three compounds bind to the active site. […] Compounds 12 and 15, whose polar dissolution values were the lowest from among the five inhibitors, were not able to achieve the concentrations needed for the protein-NMR experiments.

For data set [2], the target named is T2, T7 primase (gp4) with gp5/trx (Escherichia phage T7, UniProt P03692).
T2 construct: the helicase-primase (gene product 4, gp4, full-length) was run; made in house
In words: Primase dependent DNA synthesis (gp4 primers extended by gp5/trx on M13 ssDNA). It is filed as biochemical, bacteriophage T7. Particulars: 350 μM of each small molecule, FIG. 4B. The protocol:
Primase dependent DNA synthesis: RNA primers made by gp4A were extended by gp5/trx. The reaction mixture contained 10 nM M13 ssDNA, 0.3 mM dNTPs, 0.1 μCi [α-^32P] dCTP, 20 nM gp5/trx, 200 nM monomeric gp4A, and 350 μM of each compound. The reaction was incubated for 45 min at 37° C. Reaction was terminated and amount of DNA synthesis was determined as described in DNA polymerase assay.
Small molecules that inhibit the concerted activity of primase and DNA polymerase: To evaluate the ability of the small molecule candidates to inhibit the primase-dependent replication of the lagging strand of bacteriophage DNA, an overall assay that involved the concerted activity of DNA polymerase (gene product 5 and E. coli thioredoxin, gp5/trx) and the helicase-primase (gene product 4, gp4, full-length) was run. In bacteriophage T7, lagging strand DNA synthesis involves interactions between gp5/trx and gp4. Full-length gp4 is required for the synthesis of oligoribonucleotides to initiate the synthesis of Okazaki fragments.
To examine the effect of 350 μM of each small molecule on the synthesis of primers and their transfer to gp5/trx, M13 ssDNA for the synthesis of oligoribonucleotides by the primase and their extension by gp5/trx was used (FIG. 4b, inset). To initiate DNA synthesis, the primase must first synthesize tetraribonucleotides on the DNA and then transfer them to gp5/trx. In addition to the four dNTPs, ATP and CTP were also provided, and the primers that were synthesized included pppACCC, pppACAC, and pppACCA.
The Table in FIG. 6A presents the inhibitory effect of various small molecules on primase-dependent DNA synthesis mediated by gp5/trx and gene 4 helicase (gp4A). The standard reaction contained the ssM13 DNA template (10 nM), 0.3 mM dATP, dGTP, dCTP and [α-^32P] dTTP (0.1 mCi), 10 nM gp5/trx, 200 nM monomeric concentrations of […] and 250 μM of small molecule inhibitors. After incubation for 30 min at 37° C., the level of […] was determined based on the amount of [α-^32P] dTTP incorporated into DNA.

For data set [3], the target named is T1, T7 DNA primase. In words: Fragment based screening by STD NMR spectroscopy. It is filed as binding, bacteriophage T7. The conditions noted are these: ranked by total change in intensity and number of affected peaks; Maybridge Ro3 library. The method, then: NMR experiments—Fragment Based Screening: T7 primase was screened against the Maybridge Ro3 Diversity Fragment Library containing 1000 compounds using STD spectroscopy. Samples for 1D ligand-observed NMR studies contained […] T7 primase in 50 mM phosphate buffer in D2O and 10 compounds, resulting in a total of 100 samples. NMR spectra were recorded on a Bruker Avance 500 MHz equipped with a TXO cryoprobe with Z gradient and a NMR-CASE sample changer at 298 K. Ligand binding was probed using a saturation transfer difference pulse program. Saturation was achieved using on-resonance irradiation at 0 ppm with a train of Wurst pulses for a total saturation time of 1.5 s. Off resonance irradiation was centered at 40 ppm. Spectra were acquired with a sweep width of 8012.8 Hz, 8192 data points and 224 scans. Active compounds were identified by comparing the STD spectra with the corresponding reference spectra using the MestreNova software. Any compound with reduced peak intensities was considered a hit and ranked according to the percentage of intensity decrease and the number of affected peaks per compound.
Using the Maybridge Ro3 fragment library containing 1000 fragments, 100 NMR samples were prepared, each containing a mixture of 10 fragments and 50 μM T7 primase.
The 10 fragments were chosen to show minimal overlap of their 1H chemical shift to allow easy identification of the shifts. […]

Data set [4] concerns the target T3, T7 DNA primase (primase domain of bacteriophage T7 gene 4 protein, residues 1-271) (Escherichia phage T7, UniProt P03692).
T3 construct: T7 primase domain (residue: 1-271) was over-produced and purified; made in house; host or cells: E. coli BL21(DE3), plasmid pETg4P
Put plainly: Oligoribonucleotide synthesis assay: template-directed diribonucleotide (pppAC) synthesis catalyzed by the T7 DNA primase domain (FIG. 5). The class given is biochemical. The conditions noted are these: T7 gene 4 primase domain (residues 1-271, expressed in E. coli BL21(DE3)); DNA template with recognition site 5'-GTC-3' (5'-GGGTCA10-3'), ATP, [α-32P]-CTP, 10 mM MnCl2, pH 7.5; gel autoradiography of pppAC; four parameter logistic fit; parenthesised figure not explained. The text has this: FIGS. 5A-C present a scheme summarizing the assay in which the DNA template containing the primase recognition site 5′-GTCA10-3′ enables the synthesis of only diribonucleotides pppAC (FIG. 5A), and gel bands and quantification of gel bands representing the reaction products (5′-pppAC-3′) (FIG. 5B and FIG. 5C, respectively).
Protein expression and purification: Proteins and Reagents. All chemical reagents were of molecular biology grade (Sigma); ATP and CTP (Roche Molecular Biochemicals). dNTPs and ddNTPs were purchased from USB Corp. Premade gels (10-20% linear gradients) used for SDS-PAGE and Precision Plus Protein prestained standards were purchased from BioRad (Hercules, Calif.). T7 primase domain (residue: 1-271) was over-produced and purified using metal free buffers as previously described in Mol Cell 11, 1349-60 (2003). T7 gp5 and E. Coli trx were overproduced and purified as described in J. Biol. Chem. 262, 16224-32 (1987). Gp4 was overproduced and purified as described in J. Biol. Chem. 272, 18425-33 (1997). M13 ssDNA was prepared as described in J. Biol. Chem. 261, 15208-16 (1986). [α-^32P]-CTP (800 Ci/mmol) was purchased from Perkin Elmer.
Oligoribonucleotide Synthesis Assay: Oligoribonucleotides were synthesized by DNA primase, product was measured as described in J Biol Chem 272, 5943-51 (1997) and in J Biol Chem 266, 23240-50 (1991), in reactions containing various concentrations (1.1, 3.3, and 10 μM) of gene 4 primase domain. […]
(§1) Small molecules that inhibit primase activity: to catalyze the synthesis of short RNA primers, T7 primase requires DNA with a primase recognition site, ATP and CTP, and a buffer containing divalent metal ions. […] The radioactively labeled oligoribonucleotides were separated on a denaturing polyacrylamide gel, and radioactivity was measured on an autoradiogram. The amounts of RNA-primed DNA syntheses were determined by measuring the incorporation of dTMP (see Methods). […]

Data set [5] in a line: Polar dissolution of inhibitors for protein-NMR experiments. It is filed as physicochemical. The conditions noted are these: among the five inhibitors.
Another data set has as its target T4, T7 primase domain (Escherichia phage T7, UniProt P03692).
T4 construct: T7 primase domain (residue: 1-271) was over-produced and purified using metal free buffers; made in house; host or cells: E. coli Bl21(DE3) containing pETg4P
In words: Oligoribonucleotide (pppAC diribonucleotide) synthesis assay. It is filed as biochemical, bacteriophage T7. The conditions noted are these: pppAC synthesis by T7 primase domain; four parameter logistic fit. The protocol:
Oligoribonucleotide Synthesis Assay: Oligoribonucleotides were synthesized by DNA primase, product was measured as described in J Biol Chem 272, 5943-51 (1997) and in J Biol Chem 266, 23240-50 (1991), in reactions containing various concentrations (1.1, 3.3, and 10 μM) of gene 4 primase domain. Standard 10 μL reaction contained 5 μM of DNA template (5′-GGGTCA10-3′), 200 μM ATP, 200 μM [α-^32P]-CTP, and primase domain in a buffer containing 40 mM Tris-HCl (pH 7.5), 10 mM MnCl2, 10 mM DTT, and 50 mM potassium glutamate. […]
as §1
The reaction conditions involve incubating the primase domain with an oligonucleotide containing a primase recognition sequence. […] After incubation, the radioactive products were analyzed by electrophoresis through 25% polyacrylamide gel containing 3 M urea and visualized using autoradiography.

One may read the IC50 as the concentration needed to halve the response being measured.

T2 sequence (P03692 whole entry): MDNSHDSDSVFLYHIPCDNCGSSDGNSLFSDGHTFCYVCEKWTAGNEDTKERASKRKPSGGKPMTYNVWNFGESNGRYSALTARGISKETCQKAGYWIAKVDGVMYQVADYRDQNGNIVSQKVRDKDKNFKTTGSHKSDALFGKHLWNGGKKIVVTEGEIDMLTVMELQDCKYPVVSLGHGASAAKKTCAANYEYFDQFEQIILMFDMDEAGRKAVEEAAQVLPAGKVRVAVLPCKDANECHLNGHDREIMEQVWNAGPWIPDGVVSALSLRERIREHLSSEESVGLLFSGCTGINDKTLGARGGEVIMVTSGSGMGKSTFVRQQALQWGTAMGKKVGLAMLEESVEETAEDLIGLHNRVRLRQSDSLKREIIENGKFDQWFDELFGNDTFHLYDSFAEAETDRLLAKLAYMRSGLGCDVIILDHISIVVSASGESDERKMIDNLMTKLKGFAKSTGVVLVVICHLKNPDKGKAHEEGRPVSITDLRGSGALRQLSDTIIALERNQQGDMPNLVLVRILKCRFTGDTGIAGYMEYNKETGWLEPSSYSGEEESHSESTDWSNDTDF
T1 sequence (P03692 1-271): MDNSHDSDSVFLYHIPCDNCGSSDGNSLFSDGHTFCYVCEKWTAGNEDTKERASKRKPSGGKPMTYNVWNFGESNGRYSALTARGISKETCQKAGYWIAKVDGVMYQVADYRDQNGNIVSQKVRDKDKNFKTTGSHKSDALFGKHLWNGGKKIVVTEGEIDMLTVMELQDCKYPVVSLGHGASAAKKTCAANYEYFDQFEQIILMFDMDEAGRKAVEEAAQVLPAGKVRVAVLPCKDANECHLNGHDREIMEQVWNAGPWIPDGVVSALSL
T3 sequence (P03692 1-271): as above
T4 sequence (P03692 1-271): as above

In the case of `CCOC(=O)c1[nH]c2ccc([N+](=O)[O-])cc2c1CCC(=O)O` [compound 13, 3-[2-(ethoxycarbonyl)-5-nitro-1H-indol-3-yl]propanoic acid], the “chemical shift perturbations of T7 primase upon compound addition” value (“chemical shift perturbations” for short) at T7 DNA primase [1] was “significant chemical shift perturbations”. Further, the “decrease of primase dependent DNA synthesis” value in data set [2] is recorded as “decreases by up to four-fold”. On to `NC(=S)C1=Cc2ccccc2OC1` [2H-chromene-3-carbothioamide], for which the “binding to T7 primase by STD spectroscopy (decrease in NMR peak intensities)” value on T7 DNA primase [3] is “strongest binding”. With `O=C(O)/C=C/C1=Cc2cc(Cl)ccc2OC1` [compound 1, (2E)-3-(6-chloro-2H-chromen-3-yl)acrylic acid], the “chemical shift perturbations” value at T7 DNA primase [1] is given as “significant chemical shift perturbations”. In addition, the “decrease of primase dependent DNA synthesis” value in data set [2] was “decreases by up to four-fold”. As for `O=C(Nc1ccc2c(c1)OCO2)c1cc2cccc([N+](=O)[O-])c2[nH]1` [Compound 15, N-(1,3-benzodioxol-5-yl)-7-nitro-1H-indole-2-carboxamide], in data set [4], the IC50 is 56.7 µM. For the compound `O=C1Cc2c([nH]c3ccc([N+](=O)[O-])cc23)-c2ccccc2N1` [Compound 12, 9-Nitro-7,12-dihydroindolo-[3,2-d][1]benzazepin-6(5)-one], in data set [4], the half-maximal inhibitory concentration (IC50) was 109 µM. As for `O=C(Nc1ccc2c(c1)OCO2)c1cc2cccc([N+](=O)[O-])c2[nH]1` [compound 15, N-(1,3-benzodioxol-5-yl)-7-nitro-1H-indole-2-carboxamide], the “decrease of primase dependent DNA synthesis” value in data set [2] is recorded as “decreases by up to four-fold”. In data set [5], the polar dissolution values result was “lowest”.

On to `O=C(O)c1cc2cccc([N+](=O)[O-])c2[nH]1` [compound 17, 7-nitro-1H-indole-2-carboxylic acid], for which the “chemical shift perturbations” value on T7 DNA primase [1] is recorded as “significant chemical shift perturbations”. In addition, the “decrease of primase dependent DNA synthesis” value in data set [2] is on record as “decreases by up to four-fold”. Take `O=C(O)c1cc2cccc([N+](=O)[O-])c2[nH]1` [Compound 17, 7-nitro-1H-indole-2-carboxylic acid]: the IC50 in data set [4] is 314 µM. As to `c1ccc2[nH]ccc2c1` [indole], the “binding to T7 primase by STD spectroscopy (decrease in NMR peak intensities)” value on T7 DNA primase [3] is on record as “strongest binding”.

As for `O=C1Cc2c([nH]c3ccc([N+](=O)[O-])cc23)-c2ccccc2N1` [compound 12, 9-Nitro-7,12-dihydroindolo-[3,2-d][1]benzazepin-6(5)-one], the “decrease of primase dependent DNA synthesis” value in data set [2] is reported as “decreases by up to four-fold”. Also, the polar dissolution values entry in data set [5] is reported as “lowest”. The Hill coefficient result at T7 primase domain is on record as “highest value”.
